Calls of active or inactive are those of the source. The rule behind the calls is not given here.
System: KB
Test: Cytotoxicity against human KB cells
Type: functional, cell-based

C=C(C)[C@@H]1CC[C@]2(C)C[C@H](OC(C)=O)/C(CO)=C/CC/C(C)=C/C[C@@H]12
Activity: Active

— ChEMBL document CHEMBL1151619, “Structure and conformation of two new dolabellane-based diterpenes from Dictyota sp” (J Nat Prod, 1984)
